From PubChem BioAssay (NCI)
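Five concentrations, 48 hours, 96-well plates. TGI is the concentration that stops growth completely.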

Tests used:
Experiment in all cases: NCI-60 cell line screen, 48 h
[1] = test system: NCI/ADR-RES ovarian
[2] = test system: K-562 leukemia
[3] = test system: HS 578T breast
[4] = test system: MOLT-4 leukemia
[5] = test system: PC-3 prostate
[6] = test system: HOP-62 NSCLC
[7] = test system: RXF 393 renal
[8] = test system: SR leukemia
[9] = test system: HCT-116 colon
[10] = test system: OVCAR-4 ovarian
[11] = test system: SN12C renal
[12] = test system: SK-OV-3 ovarian
[13] = test system: UACC-257 melanoma
[14] = test system: ACHN renal
[15] = test system: LOX IMVI melanoma
[16] = test system: SK-MEL-2 melanoma
[17] = test system: 786-0 renal
[18] = test system: MDA-N
[19] = test system: HCC-2998 colon
[20] = test system: KM12 colon
[21] = test system: UO-31 renal
[22] = test system: SNB-75 CNS
[23] = test system: SF-295 CNS
[24] = test system: SK-MEL-28 melanoma
[25] = test system: NCI-H460 lung
[26] = test system: COLO 205 colon
[27] = test system: SK-MEL-5 melanoma
[28] = test system: A549 NSCLC
[29] = test system: HT29 colon
[30] = test system: CAKI-1 renal
[31] = test system: SF-268 CNS
[32] = test system: OVCAR-8 ovarian
[33] = test system: CCRF-CEM leukemia
[34] = test system: HOP-92 NSCLC
[35] = test system: MDA-MB-435
[36] = test system: MALME-3M melanoma
[37] = test system: SW-620 colon
[38] = test system: IGROV1 ovarian
[39] = test system: DU-145 prostate
[40] = test system: RPMI-8226 leukemia
[41] = test system: UACC-62 melanoma
[42] = test system: OVCAR-5 ovarian
[43] = test system: BT-549 breast
[44] = test system: U251 CNS
[45] = test system: HCT-15 colon
[46] = test system: TK-10 renal
[47] = test system: NCI-H23 lung
[48] = test system: M14 melanoma
[49] = test system: NCI-H522 lung
[50] = test system: EKVX NSCLC
[51] = test system: OVCAR-3 ovarian
[52] = test system: SNB-19 CNS
[53] = test system: MDA-MB-231 breast
[54] = test system: A498 renal
[55] = test system: T-47D breast
[56] = test system: HL-60(TB) leukemia
[57] = test system: NCI-H226 lung
[58] = test system: MCF7 breast
[59] = test system: SF-539 CNS

**Q.** Which results are given for Nc1ccc(-c2nc3ccccc3s2)cc1CO?
**A.** TGI [1]: > 100 µM; TGI [2]: > 100 µM; TGI [3]: > 100 µM; TGI [4]: > 100 µM; TGI [5]: > 100 µM; TGI [6]: > 90.4 µM; TGI [7]: > 100 µM; TGI [8]: > 100 µM; TGI [9]: > 100 µM; TGI [10]: > 100 µM; TGI [11]: > 100 µM; TGI [12]: > 100 µM; TGI [13]: > 100 µM; TGI [14]: > 100 µM; TGI [15]: > 100 µM; TGI [16]: > 100 µM; TGI [17]: > 100 µM; TGI [18]: > 100 µM; TGI [19]: > 100 µM; TGI [20]: > 100 µM; TGI [21]: > 100 µM; TGI [22]: > 100 µM; TGI [23]: > 100 µM; TGI [24]: > 100 µM; TGI [25]: > 100 µM; TGI [26]: > 100 µM; TGI [27]: > 100 µM; TGI [28]: > 100 µM; TGI [29]: > 100 µM; TGI [30]: > 100 µM; TGI [31]: > 100 µM; TGI [32]: > 100 µM; TGI [33]: > 100 µM; TGI [34]: > 100 µM; TGI [35]: > 100 µM; TGI [36]: > 100 µM; TGI [37]: > 100 µM; TGI [38]: > 100 µM; TGI [39]: > 100 µM; TGI [40]: > 100 µM; TGI [41]: > 100 µM; TGI [42]: > 100 µM; TGI [43]: > 100 µM; TGI [44]: > 100 µM; TGI [45]: > 100 µM; TGI [46]: > 100 µM; TGI [47]: > 100 µM; TGI [48]: > 100 µM; TGI [49]: > 100 µM; TGI [50]: > 49.2 µM; TGI [51]: > 100 µM; TGI [52]: > 100 µM; TGI [53]: > 100 µM; TGI [54]: > 100 µM; TGI [55]: > 100 µM; TGI [56]: > 100 µM

**Q.** With CCOC(=O)C#Cc1cccc(C#CC(=O)OCC)c1 as the compound, how does the TGI [1] read?
**A.** 14.6 µM

**Q.** What about the TGI [3] of the same compound?
**A.** > 30.3 µM

**Q.** What about the TGI [57] of the same compound?
**A.** 22.1 µM

**Q.** What about the TGI [5] of the same compound?
**A.** 14.9 µM

**Q.** What about the TGI [6] of the same compound?
**A.** 11.6 µM

**Q.** What about the TGI [7] of the same compound?
**A.** 10.9 µM

**Q.** And the TGI [8]?
**A.** 3.25 µM

**Q.** What about the TGI [9] of the same compound?
**A.** 7.1 µM

**Q.** And the TGI [10]?
**A.** 7.59 µM

**Q.** What about the TGI [11] of the same compound?
**A.** 8.21 µM

**Q.** And the TGI [12]?
**A.** 19.5 µM

**Q.** What about the TGI [13] of the same compound?
**A.** 24.2 µM

**Q.** And the TGI [14]?
**A.** 11.6 µM

**Q.** And the TGI [15]?
**A.** 5.83 µM

**Q.** What about the TGI [16] of the same compound?
**A.** 5.04 µM

**Q.** What about the TGI [17] of the same compound?
**A.** 8.85 µM

**Q.** And the TGI [18]?
**A.** 6.44 µM

**Q.** And the TGI [19]?
**A.** 2.1 µM

**Q.** And the TGI [20]?
**A.** 15.2 µM

**Q.** What about the TGI [21] of the same compound?
**A.** 10.1 µM

**Q.** And the TGI [22]?
**A.** 13.4 µM

**Q.** And the TGI [23]?
**A.** 3.48 µM

**Q.** What about the TGI [24] of the same compound?
**A.** 9.99 µM

**Q.** What about the TGI [25] of the same compound?
**A.** 39.2 µM

**Q.** What about the TGI [26] of the same compound?
**A.** 9.92 µM

**Q.** What about the TGI [27] of the same compound?
**A.** 8.29 µM

**Q.** And the TGI [28]?
**A.** 16.6 µM

**Q.** And the TGI [29]?
**A.** 9.07 µM

**Q.** And the TGI [30]?
**A.** 10.2 µM

**Q.** And the TGI [31]?
**A.** 16.7 µM

**Q.** And the TGI [32]?
**A.** 26 µM

**Q.** What about the TGI [33] of the same compound?
**A.** 6.34 µM

**Q.** What about the TGI [34] of the same compound?
**A.** 11.8 µM

**Q.** What about the TGI [35] of the same compound?
**A.** 9.52 µM

**Q.** And the TGI [36]?
**A.** 12.1 µM

**Q.** What about the TGI [37] of the same compound?
**A.** 14.6 µM

**Q.** And the TGI [38]?
**A.** 32.5 µM

**Q.** What about the TGI [39] of the same compound?
**A.** 17.9 µM

**Q.** And the TGI [40]?
**A.** 13 µM

**Q.** And the TGI [41]?
**A.** 9.53 µM

**Q.** What about the TGI [42] of the same compound?
**A.** 2.4 µM

**Q.** And the TGI [43]?
**A.** 5.1 µM

**Q.** And the TGI [44]?
**A.** 9.87 µM

**Q.** And the TGI [58]?
**A.** 15.6 µM

**Q.** What about the TGI [45] of the same compound?
**A.** 16.1 µM

**Q.** What about the TGI [46] of the same compound?
**A.** 10.6 µM

**Q.** And the TGI [47]?
**A.** 10.6 µM

**Q.** What about the TGI [48] of the same compound?
**A.** 5.95 µM

**Q.** And the TGI [49]?
**A.** 30.9 µM

**Q.** And the TGI [50]?
**A.** 2.42 µM

**Q.** And the TGI [51]?
**A.** 13.4 µM

**Q.** What about the TGI [52] of the same compound?
**A.** 11.4 µM

**Q.** And the TGI [53]?
**A.** 11.2 µM

**Q.** What about the TGI [54] of the same compound?
**A.** 36.2 µM

**Q.** And the TGI [55]?
**A.** 98.4 µM

**Q.** And the TGI [59]?
**A.** 9.65 µM

**Q.** And the TGI [56]?
**A.** 4.06 µM

**Q.** What does the source list for CC1(C=O)CC(CCc2ccccc2)NC1Cc1ccc(O)cc1 (stereo unspecified)?
**A.** TGI [1]: 37.6 µM; TGI [2]: 48.1 µM; TGI [3]: 41.9 µM; TGI [57]: 31.5 µM; TGI [4]: 38.2 µM; TGI [5]: 26.7 µM; TGI [6]: 36.4 µM; TGI [7]: 31 µM; TGI [8]: 33.9 µM; TGI [9]: 29.6 µM; TGI [10]: 29 µM; TGI [11]: 31.6 µM; TGI [12]: 33.4 µM; TGI [13]: 29.6 µM; TGI [14]: 28.6 µM; TGI [15]: 35 µM; TGI [16]: 29 µM; TGI [17]: 29.2 µM; TGI [18]: 32.1 µM; TGI [19]: 24.9 µM; TGI [20]: 37.5 µM; TGI [21]: 28.4 µM; TGI [22]: 28.6 µM; TGI [23]: 33.8 µM; TGI [24]: 54 µM; TGI [25]: 31.8 µM; TGI [26]: 23.3 µM; TGI [27]: 29.4 µM; TGI [28]: 30.1 µM; TGI [29]: 29.5 µM; TGI [30]: 29.3 µM; TGI [31]: 33.1 µM; TGI [32]: 43.7 µM; TGI [33]: 82.7 µM; TGI [34]: 30 µM; TGI [35]: 34 µM; TGI [37]: 62.3 µM; TGI [38]: 30.8 µM; TGI [39]: 33.4 µM; TGI [40]: 40.7 µM; TGI [41]: 30.3 µM; TGI [42]: 31.5 µM; TGI [43]: 39.4 µM; TGI [44]: 26.5 µM; TGI [58]: 27.1 µM; TGI [45]: 43.3 µM; TGI [46]: 31.8 µM; TGI [47]: 43.5 µM; TGI [48]: 29.7 µM; TGI [49]: 35 µM; TGI [50]: 29 µM; TGI [51]: 33.2 µM; TGI [52]: 28.1 µM; TGI [53]: 26.5 µM; TGI [54]: 27.9 µM; TGI [55]: 40.9 µM; TGI [59]: 29.4 µM; TGI [56]: 31.8 µM
